The record followed here is patent publication US10407445B2, “Hepatitis C virus inhibitors” (ENANTA PHARMACEUTICALS, INC., priority 2013, dated 2019).

Holding throughout (format): cell-based
The subject of assay [1] is GT1a replicon encoding NS5A mutation Q30R. Put plainly: Transient replication assay, GT1a replicon with NS5A mutation Q30R. The note with it: Hepatitis C virus, read-out: EC50 1a Q30R. Background: A replicon is a self-replicating genome or part of one, used to study replication in cells.
Another assay concerns HCV GT 1b replicon. Put plainly: HCV replicon assay, stable GT 1b replicon (Renilla luciferase). Conditions: Hepatitis C virus, GT1B, 72 h. Here is the method: (§1) The activity of compounds was determined against HCV replicons representing genotypes (GT) 1a, 1b, 2a, and 3a. To generate stable Huh-7.5-based cell lines, HCV replicons were engineered to express the Renilla luciferase reporter (hRluc) fused to the neomycin phosphotransferase (Neo) gene. GT2a and GT3a HCV replicons were based on the JFH-1 subgenomic replicon (Kato et al. 2003 Gastroenterology, 125:1808-1817), in which the NS5A gene was replaced with that of strains J6 and S52 (GT2a and G3a, respectively). The activity of compounds against GT1a replicons encoding NS5A mutations (M28T, Q30R, L31M, Y93C, and Y93H) was also determined in a transient replication assay. The parental GT1a and GT2a replicons (pH/SG-Neo(L+I) and pSG-Neo-JFH1, respectively) were licensed from Apath LLC (Saint Louis, Mo.). The parental GT 1b replicon (pFKi389lucubineo_3_3′_ET) was licensed from ReBLikon GmbH (Germany). HCV replicons were constructed by standard molecular biology techniques described below. All replicon constructs were verified by restriction enzyme digestion and DNA sequencing.
The hRluc-Neo cassette was PCR amplified from pF9 cytomegalovirus (CMV) hRluc-Neo Flexi(R) (Promega) using Accuprime Super Mix II (Invitrogen) and the following primers, which introduce restriction sites: […]
The amplification product was subcloned into pCR2.1-TOPO (Invitrogen). The resulting plasmid was digested with AscI and NotI, and the excised hRluc-Neo fragment was ligated using the Roche Quick Ligation Kit (Roche) into pFKi389lucubineo_3_3′_ET digested with the same enzymes.
(§2) Stable HCV replicon cell lines were grown in complete media (Dulbecco's modified Eagle medium [DMEM], 2 mM L-glutamine, 0.1 mM essential amino acids, 1 mM sodium pyruvate, 10% heat inactivated fetal bovine serum) with the addition 500 μg/ml […] (G418). Huh7-lunet cells were maintained in the same medium without the addition of G418. Cells were routinely passaged at a dilution of 1:4 two times a week. The assay medium for both luciferase reporter HCV replicon and cytotoxicity assays used phenol red-free DMEM and lacked G418. For each stable replicon assay, a sixteen point half-log dilution series of compound was stamped (0.5 ul compound per well) into three replica 384-well plates, to which cells were added directly (4000 cells/well). For the transient replication assay, Huh7-lunet cells in ice-cold phosphate buffered saline (PBS) were electroporated (BioRad electroporator; 950 uF, 270V) with 10 ug purified in vitro transcribed HCV replicon RNA, followed by resuspension in complete media and plating (8000 cells/well) into compound stamped 384-well plates. Luciferase activity of compound-treated cells was measured relative to DMSO-treated cells after 72 h incubation using RENILLA-GLO™ Luciferase Assay (Promega). Cytotoxicity (CC50) in the GT1b replicon cell line was analyzed using CELL TITER-GLO™ (Promega).
The compounds of the present invention can be effective against the HCV 1b genotype. It should also be understood that the compounds of the present invention can inhibit multiple genotypes of HCV. In one embodiment compound of the present invention are active against the 1a, 1b, 2a, 2b, 3a, 4a, and 5a genotypes. In another embodiment compound of the present invention are active against the HCV resistant mutants. […] EC50s are in pM against HCV GT 1a and GT 1b; and nM against GT 2a-J6, GT 3a and GT1a resistant variants (M28T, Q30R, L31V, Y93C and Y93H).

A further assay has as its system HCV GT 1a replicon. Kind of assay: HCV replicon assay, stable GT 1a replicon (Renilla luciferase). Conditions: Hepatitis C virus, GT1A; HCV GT 1a replicon, 72 h; read-out: EC50 1a. The protocol: as §1
pH/SG-Neo(L+I) was modified to add the firefly luciferase reporter gene and additional adaptive mutations by replacing the pH/SG-Neo(L+I) NS3-NS5A coding region with the corresponding sequence of pH77-S, creating pH/SG-lucubineo-H77S as described (Borawski J et al. 2009, J Virol 83: 10058-10074). Subsequently, the firefly luciferase-Neo cassette was replaced with the hRluc-Neo cassette. To create a unique cloning site, the NotI restriction site in NS5B was removed using QuickChange II XL Site-Directed Mutagenesis Kit (Agilent) and the following primers: NotI KO Fwd 5′-CTCAAACTCACTCCAATAGCTGCCGCTGGCCGGCTGGAC-3′(G→T mutation removing NotI site underlined) (SEQ. ID No. 1) and NotI KO Rev 5′-GTCCAGCGGGCCAGCGGCAGCTATTGGAGTGAGTTTGAG-3′(C→A mutation removing NotI site underlined) (SEQ. ID No. 2). The resulting vector, pH/SG-lucubineo-H775-NotIKO, was sequenced to confirm the NS5B gene. The hRluc-Neo cassette was PCR amplified from pF9 cytomegalovirus (CMV) hRluc-Neo Flexi(R) (Promega) using Accuprime Super Mix II (Invitrogen) and the following primers, which introduce restriction sites: […]
The amplification product was subcloned into pCR2.1-TOPO (Invitrogen). The resulting plasmid was digested with AscI and NotI, and the excised hRluc-Neo fragment was ligated using the Promega Rapid Ligation Kit (Promega) into pH/SG-lucubineo-H775-NotIKO digested with the same enzymes.
as §2, with “TITER-GLO™ (Promega). […]” for “TITER-GLO™ (Promega).”

For assay [2], the system named is GT1a replicon encoding NS5A mutation Y93H. Kind of assay: Transient replication assay, GT1a replicon with NS5A mutation Y93H. The note with it: Hepatitis C virus, read-out: EC50 1a Y93H.
Assay [3] relates to GT1a replicon encoding NS5A mutation M28T. Kind of assay: Transient replication assay, GT1a replicon with NS5A mutation M28T. Conditions: Hepatitis C virus, read-out: EC50 1a M28T.
The test system of assay [4] is GT1a replicon encoding NS5A mutation L31V. Put plainly: Transient replication assay, GT1a replicon with NS5A mutation L31V. The note with it: Hepatitis C virus, read-out: EC50 1a L31V.
Assay [5] relates to GT1a replicon encoding NS5A mutation Y93C. Kind of assay: Transient replication assay, GT1a replicon with NS5A mutation Y93C. Conditions: Hepatitis C virus, read-out: EC50 1a Y93C.

As for `COC(=O)N[C@H](C(=O)N1[C@H](c2ncc(-c3ccc(-c4ccc(-c5cnc([C@@H]6C[C@@]7(CCCOC7)CN6C(=O)[C@@H](NC(=O)OC)C6C[C@@H](C)O[C@H](C)C6)[nH]5)cc4)cc3)[nH]2)C[C@@H]2CCC[C@@H]21)C(C)C` (some centres unmarked) [Compound 45], the EC50 – broadly, the concentration at which the effect is half-maximal – in assay [1] is 0.03 nM; with HCV GT 1b replicon it was 0.028 nM; in the assay with HCV GT 1a replicon, 0.023 nM; in assay [2], 8 nM; in assay [3], 0.04 nM; in assay [4], 0.06 nM. Besides, the EC50 in assay [5] came out at 0.3 nM.
As to `COC(=O)N[C@H](C(=O)N1[C@H](c2nc3ccc4cc(-c5ccc(-c6cnc([C@@H]7C[C@@]8(CCCOC8)CN7C(=O)[C@@H](NC(=O)OC)C7C[C@@H](C)O[C@H](C)C7)[nH]6)cc5)ccc4c3[nH]2)C[C@@H]2CCC[C@@H]21)C(C)C` (some centres unmarked) [Compound 43], the EC50 in assay [1] stood at 0.03 nM; in the assay with HCV GT 1b replicon, 0.023 nM; with HCV GT 1a replicon, 0.015 nM; in assay [2] it was 2 nM; in assay [3], 0.04 nM; in assay [4], 0.06 nM. Further, in assay [5], the EC50 amounted to 0.04 nM.
